One data set deals with CD137 (Homo sapiens, UniProt Q07011). As to the kind of experiment: CD137 reporter assay (Promega CD137 luciferase reporter, Jurkat cells) in co-culture with Nectin-4-expressing tumor cells. The conditions noted are these: co-culture with HT1376, Table 2A; for EC50: EC50 (nM). Details: host or cells: Jurkat reporter cells. It is filed as cell-based. For orientation: Reporter assays use an easily measured gene product as a stand-in for the process of interest.

Data set [1] is described as follows: Pharmacokinetics in SD rats. The note with it: rat, in vivo, IV Inf (15 minutes). It is filed as in vivo. The protocol:
Male SD Rats were dosed with each heterotandem Bicycle peptide complex formulated in 25 mM Histidine HCl, 10% sucrose pH 7 by IV bolus or IV infusion (15 minutes). Serial bleeding (about 80 μL blood/time point) was performed via submandibular or saphenous vein at each time point. All blood samples were immediately transferred into prechilled microcentrifuge tubes containing 2 μL K2-EDTA (0.5M) as anti-coagulant and placed on wet ice. Blood samples were immediately processed for plasma by centrifugation at approximately 4° C., 3000 g. The precipitant including internal standard was immediately added into the plasma, mixed well and centrifuged at 12,000 rpm, 4° C. for 10 minutes. The supernatant was transferred into pre-labeled polypropylene microcentrifuge tubes, and then quick-frozen over dry ice. The samples were stored at […] or below as needed until analysis. 7.5 μL of the supernatant samples were directly injected for LC-MS/MS analysis using an Orbitrap Q Exactive in positive ion mode to determine the concentrations of analyte. Plasma concentration versus time data were analyzed by non-compartmental approaches using the Phoenix WinNonlin 6.3 software program. C0, CI, Vdss, T½, AUC(0-last), AUC(0-inf), MRT(0-last), MRT(0-inf) and graphs of plasma concentration versus time profile were reported.

One may read the EC50 as the midpoint of the concentration-response curve. Read a low EC50 as an effect from little substance.

Starred links: 1 amine or outer side, 2 acyl side, 3 side chain; linkers in the order of their positions; H or OH if unused. Positions of bridges follow the written chain, without caps; N, C: chain ends. Non-standard residues stand in square brackets, D forms with d. Chains are numbered I, II in the order given. X1 = O=C(CCOCCOCCOCCN(CCOCCOCCOCCn1cc(CCC(=O)[*:2])nn1)CCOCCOCCOCCn1cc(CCC(=O)[*:3])nn1)[*:1]; TATA = O=C(CC[*:1])N1CN(C(=O)CC[*:2])CN(C(=O)CC[*:3])C1; Hyp = O=C(O)[C@@H]1C[C@@H](O)CN1; hArg = N=C(N)NCCCC[C@H](N)C(=O)O; tBuAla = CC(C)(C)C[C@H](N)C(=O)O; Nle = CCCC[C@H](N)C(=O)O

CD137, sequence (Q07011 24-255): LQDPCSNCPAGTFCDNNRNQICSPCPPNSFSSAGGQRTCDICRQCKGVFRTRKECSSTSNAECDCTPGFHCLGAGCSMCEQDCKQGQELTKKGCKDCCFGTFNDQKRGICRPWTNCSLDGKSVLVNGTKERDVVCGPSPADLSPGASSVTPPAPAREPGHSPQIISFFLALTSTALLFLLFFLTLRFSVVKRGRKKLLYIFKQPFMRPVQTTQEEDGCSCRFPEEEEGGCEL

`CCCC[C@@H]1NC(=O)[C@H](Cc2ccc(O)cc2)NC(=O)[C@@H]2CCCN2C(=O)[C@H](CC(=O)O)NC(=O)[C@H](C)NC(=O)[C@H](Cc2ccccc2)NC(=O)[C@@H]2CSCCC(=O)N3CN(CN(C3)C(=O)CCSC[C@@H](C(=O)N[C@@H](C)C(N)=O)NC1=O)C(=O)CCSC[C@H](NC(C)=O)C(=O)N[C@@H](CC(C)(C)C)C(=O)N1CCC[C@H]1C(=O)N[C@@H](CCC(=O)O)C(=O)N[C@H](CCCCNC(=O)CCc1cn(CCOCCOCCOCCOCCOCCOCCOCCOCCOCCOCCNC(=O)c3cc(C(=O)NCCOCCOCCOCCOCCOCCOCCOCCOCCOCCOCCn4cc(CCC(=O)NCCCC[C@H]5NC(=O)[C@H](CCC(=O)O)NC(=O)[C@@H]6CCCN6C(=O)[C@H](CC(C)(C)C)NC(=O)[C@@H](NC(C)=O)CSCCC(=O)N6CN7CN(C6)C(=O)CCSC[C@H](NC(=O)[C@H](Cc6ccc(O)cc6)NC(=O)[C@@H]6CCCN6C5=O)C(=O)N[C@@H](Cc5ccccc5)C(=O)N[C@@H](C)C(=O)N[C@@H](CC(=O)O)C(=O)N5CCC[C@H]5C(=O)N[C@@H](Cc5ccc(O)cc5)C(=O)N[C@@H](CCCC)C(=O)N[C@H](C(=O)N[C@@H](C)C(N)=O)CSCCC7=O)nn4)cc(C(=O)NCCOCCOCCOCCOCCOCCOCCOCCOCCOCCOCCn4cc(CCC(=O)N[C@H]5CSCCC(=O)N6CN7CN(C6)C(=O)CCSC[C@H](NC(=O)[C@@H](CC(=O)O)NC(=O)[C@H](Cc6cccc8ccccc68)NC(=O)[C@@H]6CCCN6C5=O)C(=O)N[C@@H](CCSC)C(=O)N[C@@H](CCCCNC(=N)N)C(=O)N[C@@H](CC(=O)O)C(=O)N[C@@H](Cc5c[nH]c6ccccc56)C(=O)N[C@@H](CO)C(=O)N[C@@H]([C@@H](C)O)C(=O)N5CCC[C@H]5C(=O)N5C[C@H](O)C[C@H]5C(=O)N[C@@H](Cc5c[nH]c6ccccc56)C(=O)N[C@H](C(N)=O)CSCCC7=O)nn4)c3)nn1)C(=O)N1CCC[C@H]1C(=O)N[C@@H](Cc1ccc(O)cc1)C(=O)N2` [BCY10918] came in with an EC50 at CD137 of 0.16 nM.

On to `CCCC[C@@H]1NC(=O)[C@H](Cc2ccc(O)cc2)NC(=O)[C@@H]2CCCN2C(=O)[C@H](CCC(=O)O)NC(=O)[C@H](C)NC(=O)[C@H](Cc2ccccc2)NC(=O)[C@@H]2CSCCC(=O)N3CN(CN(C3)C(=O)CCSC[C@H](NC(C)=O)C(=O)N[C@@H](CC(C)(C)C)C(=O)N3CCC[C@H]3C(=O)N[C@@H](CCC(=O)O)C(=O)N[C@H](CCCCNC(=O)CCc3cn(CCOCCOCCOCCN(CCOCCOCCOCCC(=O)N[C@H]4CSCCC(=O)N5CN6CN(C5)C(=O)CCSC[C@H](NC(=O)[C@@H](CC(=O)O)NC(=O)[C@H](Cc5cccc7ccccc57)NC(=O)[C@@H]5CCCN5C4=O)C(=O)N[C@@H](CCSC)C(=O)N[C@@H](CCCCNC(=N)N)C(=O)N[C@@H](CC(=O)O)C(=O)N[C@@H](Cc4c[nH]c5ccccc45)C(=O)N[C@@H](CO)C(=O)N[C@@H]([C@@H](C)O)C(=O)N4CCC[C@H]4C(=O)N4C[C@H](O)C[C@H]4C(=O)N[C@@H](Cc4c[nH]c5ccccc45)C(=O)N[C@H](C(N)=O)CSCCC6=O)CCOCCOCCOCCn4cc(CCC(=O)NCCCC[C@H]5NC(=O)[C@H](CCC(=O)O)NC(=O)[C@@H]6CCCN6C(=O)[C@H](CC(C)(C)C)NC(=O)[C@@H](NC(C)=O)CSCCC(=O)N6CN7CN(C6)C(=O)CCSC[C@H](NC(=O)[C@H](Cc6ccc(O)cc6)NC(=O)[C@@H]6CCCN6C5=O)C(=O)N[C@@H](Cc5ccccc5)C(=O)N[C@@H](C)C(=O)N[C@@H](CCC(=O)O)C(=O)N5CCC[C@H]5C(=O)N[C@@H](Cc5ccc(O)cc5)C(=O)N[C@@H](CCCC)C(=O)N[C@H](C(N)=O)CSCCC7=O)nn4)nn3)C(=O)N3CCC[C@H]3C(=O)N[C@@H](Cc3ccc(O)cc3)C(=O)N2)C(=O)CCSC[C@@H](C(N)=O)NC1=O` [BCY12487], for which the Emax at CD137 is recorded as 12 fold induction over background.

On to `CCCC[C@@H]1NC(=O)[C@H](Cc2ccc(O)cc2)NC(=O)[C@@H]2CCCN2C(=O)[C@H](CC(=O)O)NC(=O)[C@H](C)NC(=O)[C@H](Cc2ccccc2)NC(=O)[C@@H]2CSCCC(=O)N3CN(CN(C3)C(=O)CCSC[C@@H](C(=O)N[C@@H](C)C(N)=O)NC1=O)C(=O)CCSC[C@H](NC(C)=O)C(=O)N[C@@H](CC(C)(C)C)C(=O)N1CCC[C@H]1C(=O)N[C@@H](CCC(=O)O)C(=O)N[C@H](CCCCNC(=O)CCc1cn(CCOCCOCCOCCN(CCOCCOCCOCCC(=O)N[C@H]3CSCCC(=O)N4CN5CN(C4)C(=O)CCSC[C@H](NC(=O)[C@@H](CC(=O)O)NC(=O)[C@H](Cc4cccc6ccccc46)NC(=O)[C@@H]4CCCN4C3=O)C(=O)N[C@@H](CCSC)C(=O)N[C@@H](CCCCNC(=N)N)C(=O)N[C@@H](CC(=O)O)C(=O)N[C@@H](Cc3c[nH]c4ccccc34)C(=O)N[C@@H](CO)C(=O)N[C@@H]([C@@H](C)O)C(=O)N3CCC[C@H]3C(=O)N3C[C@H](O)C[C@H]3C(=O)N[C@@H](Cc3c[nH]c4ccccc34)C(=O)N[C@H](C(N)=O)CSCCC5=O)CCOCCOCCOCCn3cc(CCC(=O)NCCCC[C@H]4NC(=O)[C@H](CCC(=O)O)NC(=O)[C@@H]5CCCN5C(=O)[C@H](CC(C)(C)C)NC(=O)[C@@H](NC(C)=O)CSCCC(=O)N5CN6CN(C5)C(=O)CCSC[C@H](NC(=O)[C@H](Cc5ccc(O)cc5)NC(=O)[C@@H]5CCCN5C4=O)C(=O)N[C@@H](Cc4ccccc4)C(=O)N[C@@H](C)C(=O)N[C@@H](CC(=O)O)C(=O)N4CCC[C@H]4C(=O)N[C@@H](Cc4ccc(O)cc4)C(=O)N[C@@H](CCCC)C(=O)N[C@H](C(=O)N[C@@H](CCCCNC(=O)c4ccc(-c5c7ccc(=N)c(S(=O)(=O)O)c-7oc7c(S(=O)(=O)O)c(N)ccc57)c(C(=O)O)c4)C(N)=O)CSCCC6=O)nn3)nn1)C(=O)N1CCC[C@H]1C(=O)N[C@@H](Cc1ccc(O)cc1)C(=O)N2` [BCY13583], for which the Emax on CD137 was 63 fold induction over background.

As to `CCCC[C@@H]1NC(=O)[C@H](Cc2ccc(O)cc2)NC(=O)[C@@H]2CCCN2C(=O)[C@H](CC(=O)O)NC(=O)[C@H](C)NC(=O)[C@H](Cc2ccccc2)NC(=O)[C@@H]2CSCCC(=O)N3CN(CN(C3)C(=O)CCSC[C@@H](C(=O)N[C@@H](C)C(N)=O)NC1=O)C(=O)CCSC[C@H](NC(C)=O)C(=O)N[C@@H](CC(C)(C)C)C(=O)N1CCC[C@H]1C(=O)N[C@@H](CCC(=O)O)C(=O)N[C@H](CCCCNC(=O)CCc1cn(CCOCCOCCOCCN(CCOCCOCCOCCC(=O)NCCCC[C@H]3NC(=O)[C@H](Cc4cccc5ccccc45)NC(=O)[C@@H]4CCCN4C(=O)[C@@H](NC(C)=O)CSCCC(=O)N4CN5CN(C4)C(=O)CCSC[C@H](NC3=O)C(=O)N[C@@H](CCSC)C(=O)N[C@@H](CCCCNC(=N)N)C(=O)N[C@@H](CC(=O)O)C(=O)N[C@@H](Cc3c[nH]c4ccccc34)C(=O)N[C@@H](CO)C(=O)N[C@@H]([C@@H](C)O)C(=O)N3CCC[C@H]3C(=O)N3C[C@H](O)C[C@H]3C(=O)N[C@@H](Cc3c[nH]c4ccccc34)C(=O)N[C@H](C(N)=O)CSCCC5=O)CCOCCOCCOCCn3cc(CCC(=O)NCCCC[C@H]4NC(=O)[C@H](CCC(=O)O)NC(=O)[C@@H]5CCCN5C(=O)[C@H](CC(C)(C)C)NC(=O)[C@@H](NC(C)=O)CSCCC(=O)N5CN6CN(C5)C(=O)CCSC[C@H](NC(=O)[C@H](Cc5ccc(O)cc5)NC(=O)[C@@H]5CCCN5C4=O)C(=O)N[C@@H](Cc4ccccc4)C(=O)N[C@@H](C)C(=O)N[C@@H](CC(=O)O)C(=O)N4CCC[C@H]4C(=O)N[C@@H](Cc4ccc(O)cc4)C(=O)N[C@@H](CCCC)C(=O)N[C@H](C(=O)N[C@@H](C)C(N)=O)CSCCC6=O)nn3)nn1)C(=O)N1CCC[C@H]1C(=O)N[C@@H](Cc1ccc(O)cc1)C(=O)N2` [BCY12490], the response at CD137 was half-maximal at 0.23 nM (EC50).

As to “I: A[hArg]DC[Hyp]LVNPLCLHP[dD]W[hArg]C-NH2 / II: Ac-C[tBuAla]PE[dK]PYCFADPY[Nle]C-NH2 / III: Ac-C[tBuAla]PE[dK]PYCFADPY[Nle]C-NH2 (linker I:4-I:11-I:18, II:1-II:8-II:15, III:1-III:8-III:15 via TATA; linker I:N-II:5-III:5 via X1) [BCY12724]”, in data set [1] (iv, read-out: T1/2 (converted)), the half-life was 1.5 h. Also, the clearance in data set [1] (read-out: Clp) was 13 mL/min/kg. The Vd in data set [1] (read-out: Vdss) was found to be 1.2 L/kg.

For the origin of these results see patent US20230129258A1, “HETEROTANDEM BICYCLIC PEPTIDE COMPLEXES” (BicycleTx Limited, priority 2019, published 2023).
